Test results published in ChEMBL document CHEMBL1138133, “6-Acylamino-2-amino-4-methylquinolines as potent melanin-concentrating hormone 1 receptor antagonists: structure-activity exploration of eastern and western parts” (Bioorg Med Chem Lett, 2006).

Key:
[1] = molecular target: T1, Melanin-concentrating hormone receptor 1 (Homo sapiens, UniProt Q99705); assay: Displacement of [125I]MCH from human MCH1 receptor expressed in CHO cell by WC assay; format: cell-based
[2] = molecular target: T1, Melanin-concentrating hormone receptor 1; assay: Inhibition of human MCH1 receptor by SPA assay
[3] = molecular target: T1, Melanin-concentrating hormone receptor 1; assay: […] human MCH1 receptor expressed in CHO cell by IP3 assay; format: cell-based

T1 sequence (Q99705 whole entry): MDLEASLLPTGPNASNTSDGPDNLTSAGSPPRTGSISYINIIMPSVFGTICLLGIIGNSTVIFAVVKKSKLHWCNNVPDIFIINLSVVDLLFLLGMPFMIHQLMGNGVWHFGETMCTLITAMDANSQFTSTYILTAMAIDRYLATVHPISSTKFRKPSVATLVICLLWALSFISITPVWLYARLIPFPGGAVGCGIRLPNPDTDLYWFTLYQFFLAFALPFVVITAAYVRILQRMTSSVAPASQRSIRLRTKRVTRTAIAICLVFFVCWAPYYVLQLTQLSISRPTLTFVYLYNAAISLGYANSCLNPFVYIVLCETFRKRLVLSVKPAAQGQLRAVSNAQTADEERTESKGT

Structure (SMILES)	IC50 [1] [nM]	IC50 [2] [nM]	IC50 [3] [nM]
Cc1cc(NCCN2CCOCC2)nc2ccc(NC(=O)COc3ccc(OC(F)(F)F)cc3)cc12	1.3	9.6	–
Cc1cc(NC2CCN(Cc3ccccc3)CC2)nc2ccc(NC(=O)COc3ccc(OC(F)(F)F)cc3)cc12	13	40	91
Cc1cc(N(C)CCN(C)C)nc2ccc(NC(=O)COc3ccccc3)cc12	–	> 10000	–
Cc1cc(NCCN2CCCCC2)nc2ccc(NC(=O)COc3ccc(OC(F)(F)F)cc3)cc12	0.91	5.3	33
Cc1cc(N(C)CCN(C)C)nc2ccc(NC(=O)NCc3ccc(Br)cc3)cc12	–	271	–
C/C(=C\c1ccccc1)C(=O)Nc1ccc2nc(N(C)CCN(C)C)cc(C)c2c1	–	9460	–
Cc1cc(N2CCN[C@@H](C)C2)nc2ccc(NC(=O)COc3ccc(OC(F)(F)F)cc3)cc12	3.7	13	–
Cc1cc(N(C)CCN(C)C)nc2ccc(NC(=O)CCc3ccc(OC(F)(F)F)cc3)cc12	14	40	–
Cc1cc(N(C)CCN(C)C)nc2ccc(NC(=O)c3ccc(Oc4ccccc4)nc3)cc12	–	105	–
Cc1cc(N(C)CCN(C)C)nc2ccc(NC(=O)CNc3ccc(Cl)cc3Cl)cc12	–	125	–
Cc1cc(N(C)CCN(C)C)nc2ccc(NC(=O)/C=C/c3ccccc3Cl)cc12	–	2540	–
Cc1cc(N(C)CCN(C)C)nc2ccc(NC(=O)COc3ccc(Cl)cc3)cc12	33	83	807
Cc1cc(N(C)CCN(C)C)nc2ccc(NC(=O)c3ccc(-c4ccccc4)cc3)cc12	5.7	42	25
Cc1cc(NCC(C)(C)CN(C)C)nc2ccc(NC(=O)COc3ccc(OC(F)(F)F)cc3)cc12	4.7	16	–
Cc1cc(N(C)CCN(C)C)nc2ccc(NC(=O)/C=C/c3ccccc3)cc12	–	6970	–
Cc1cc(N2CCN[C@H](C)C2)nc2ccc(NC(=O)COc3ccc(OC(F)(F)F)cc3)cc12	4.1	18	100
Cc1cc(NCCN(C)C)nc2ccc(NC(=O)COc3ccc(OC(F)(F)F)cc3)cc12	5.3	18	–
Cc1cc(N2C[C@@H](C)N[C@@H](C)C2)nc2ccc(NC(=O)COc3ccc(OC(F)(F)F)cc3)cc12	44	87	–

Structure (SMILES)	IC50 [1] [nM]	IC50 [2] [nM]	IC50 [3] [nM]
Cc1cc(N(C)CCN(C)C)nc2ccc(NC(=O)C3CC3c3ccccc3)cc12 (racemic)	–	> 10000	–
CCN(CC)CCNc1cc(C)c2cc(NC(=O)COc3ccc(OC(F)(F)F)cc3)ccc2n1	3.2	15	–
Cc1cc(N(C)CCN(C)C)nc2ccc(NC(=O)COc3ccc(OC(F)(F)F)cc3)cc12	2.3	18	31
Cc1cc(N(C)CCN(C)C)nc2ccc(NC(=O)CCc3nc(-c4ccccc4)c(-c4ccccc4)o3)cc12	–	162	–
Cc1cc(N(C)CCN(C)C)nc2ccc(NC(=O)C3CCC(c4ccc(Cl)cc4)CC3)cc12 (stereo not drawn)	23	423	393
Cc1cc(N(C)CCN(C)C)nc2ccc(NC(=O)c3cc4ccccc4s3)cc12	–	2100	–
Cc1cc(N(C)CCN(C)C)nc2ccc(NC(=O)Cc3ccc(-c4ccccc4)cc3)cc12	–	3280	–
Cc1cc(N(C)CCN(C)C)nc2ccc(NC(=O)c3ccc(-c4ccc(C(F)(F)F)cc4)cc3)cc12	10	–	–
Cc1cc(N(C)CCN(C)C)nc2ccc(NC(=O)c3ccc(Oc4ccccc4)cc3)cc12	–	210	–
Cc1cc(N(C)CCN(C)C)nc2ccc(NC(=O)c3ccc(OC(F)(F)F)cc3)cc12	–	2760	–
Cc1cc(N2C[C@@H](C)NC[C@@H]2C)nc2ccc(NC(=O)COc3ccc(OC(F)(F)F)cc3)cc12 (racemic)	3.4	20	–
Cc1ccc(/C=C/C(=O)Nc2ccc3nc(N(C)CCN(C)C)cc(C)c3c2)cc1	17	48	478
Cc1oc(-c2ccccc2)nc1CC(=O)Nc1ccc2nc(N(C)CCN(C)C)cc(C)c2c1	–	568	–
Cc1cc(N2CCCN(C)CC2)nc2ccc(NC(=O)COc3ccc(OC(F)(F)F)cc3)cc12	3.7	20	244
Cc1cc(N(C)CCN(C)C)nc2ccc(NC(=O)CCc3ccccc3)cc12	–	> 10000	–
Cc1cc(N2CCN(CCO)CC2)nc2ccc(NC(=O)COc3ccc(OC(F)(F)F)cc3)cc12	1.7	5	–
Cc1cc(NCCN(C(C)C)C(C)C)nc2ccc(NC(=O)COc3ccc(OC(F)(F)F)cc3)cc12	7.1	–	–
Cc1cc(N2CCCNCC2)nc2ccc(NC(=O)COc3ccc(OC(F)(F)F)cc3)cc12	2	–	–
